From patent US20030161893A1, “PTPase inhibitors and methods of using the same” (priority 2001, published 2003)

Tests used:
PRL-3 = target: T1, PRL-3 (Homo sapiens, UniProt O75365); test: In vitro PTPase assay, recombinant PRL-3; format: biochemical; conditions: 0.1-100 μg/ml
T1 construct: cDNAs of human PRL-1, PRL-2 and PRL-3 coding region were derived by RT-PCR from H9 cells; made in house; host or cells: DH5a bacteria (E. coli)
Description: Sodium stibogluconate, suramin, sodium orth ovanadate and GST fusion protein of SHP-1 have been described previously (Pathak et al., J. Imumol. 167, 3391 (2001)). Meglumine antimonate was obtained from Aventis. cDNAs of human PRL-1, PRL-2 and PRL-3 coding region were derived by RT-PCR from H9 cells (Safai, et al., Lancet 1, 1438 (1984)) and inserted in frame into the pGEX vector. cDNA of PRL-1R86 was generated by recombinant DNA technique using PRL-1 cDNA as template following established procedures (Jiao, et al., Mol. Cell. Biol. 16, 6985 (1996)). GST fusion proteins of the PRL phosphatases were prepared from DH5a bacteria transformed with the pGEX fusion protein constructs as described previously (Yi, et al., Mol. Cell. Biol. 12, 836 (1992)). cDNAs encoding the PRLs tagged at the N-termini with the Flag epitope (Castrucci, et al., J. Virol. 66, 4647 (1992)) were generated via recombinant DNA technique, sequenced to confirm their identities and cloned into the pBabepuro vector (Yang, et al., Blood 91, 3746 (1998)). Anti-Flag monoclonal antibody (M2, Sigma) was purchased from a commercial source. A synthetic phosphotyrosine peptide (Arg-Arg-Leu-Ile-Glu-Asp-Ala-Gle-Tyr-Ala-Ala-Arg-Gly (SEQ ID NO: 3), wherein the tyrosine is phosphorylated; UBI) and DiFMUP (6, 8-difluoro-4-methylumbelliferyl phosphate, Molecular Probes) were purchased as substrates for PTPase assays.
In vitro PTPase assays were used to determine the effects of compounds on recombinant PTPases, following established procedures using a synthetic phosphotyrosine peptide or DiFMUP as the substrate (Pathak et al., J. Imumol. 167, 3391 (2001)). Briefly, individual PTPases (0.1 μg/reaction) in 50 μL of PTPase buffer (50 mM Tris, pH 7.4) were incubated at 22° C. for 10 minutes or as indicated in the absence or presence of inhibitory compounds. Substrates (0.2 mM phosphotyrosine peptide) were then added and allowed to react at 22° C. for 18 hrs. PTPase activity of individual reactions was measured by adding 100 μL of malachite green solution (UBI) and then quantifying the amounts of free phosphate cleaved by the PTPase from the peptide substrate by spectrometry (OD660 nm). PTPase assays using DiFMUP as a substrate were conducted following a previously described procedure (Matter, et al., Biochem. Biophys. Res. Comm. 283, 1061 (2001)). Relative PTPase activities were calculated based on the formula: (PTPase activity in the presence of an inhibitory compound/PTPase activity in the absence of the compound)×100%. To assess the reversibility of PTPase inhibition, GST fusion proteins of the PTPases bound on glutathione beads (Pharmacia) were pre-incubated with cold Tris buffer (50 mM Tris, pH 7.0) or Tris buffer containing the inhibitor at 4° C. for 30 minutes. The beads were then washed three times in cold Tris buffer or not washed prior to subjecting to in vitro PTPase assays.

WM9 cells = test: Cell proliferation assay (MTT), WM9 melanoma cells; format: cell-based, human
Protocol: For cell proliferation assays, cells were grown in 10% FCS culture medium containing various amounts of IFNs and/or sodium stibogluconate in 96 well plates and cultured at 37° C. for 3 or 6 days as indicated. The numbers of viable cells in proliferation assays were determined by MTT assays as described in Phatak et al., J. Immunol. 167, 3391 (2001).
Dose response curves were generated for each drug alone, and also the combinations. Median effect plots were generated for IFNs alone, sodium stibogluconate alone, and the combination. The combination index (CI) was determined and plotted vs. fraction affected (FA). Data were analyzed in both modes, mutually exclusive and mutually nonexclusive. The interaction between two mutually nonexclusive drugs is described by the Equation CI=D1/D×1+D2/D×2+D1D2/D×1D×2, where D×1 and D×2 are the doses of drug 1 and drug 2 that are required to inhibit growth×%. […] When CI<1, drugs are synergistic, when CI=1, drugs are additive, and when CI>1, drugs are antagonistic.

PRL-1 = target: T2, PRL-1 (Homo sapiens, UniProt Q93096); test: In vitro PTPase assay, recombinant PRL-1; format: biochemical; conditions: 0.1-100 μg/ml
T2 construct: cDNAs of human PRL-1, PRL-2 and PRL-3 coding region were derived by RT-PCR from H9 cells; made in house; host or cells: DH5a bacteria (E. coli)
T2 sequence (Q93096 whole entry): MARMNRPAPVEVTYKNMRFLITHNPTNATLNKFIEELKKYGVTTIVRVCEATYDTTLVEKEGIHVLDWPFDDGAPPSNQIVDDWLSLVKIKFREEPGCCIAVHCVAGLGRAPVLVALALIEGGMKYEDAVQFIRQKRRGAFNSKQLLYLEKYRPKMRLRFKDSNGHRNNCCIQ
Description: (§1) Sodium stibogluconate, suramin, sodium orth ovanadate and GST fusion protein of SHP-1 have been described previously (Pathak et al., J. Imumol. 167, 3391 (2001)). Meglumine antimonate was obtained from Aventis. cDNAs of human PRL-1, PRL-2 and PRL-3 coding region were derived by RT-PCR from H9 cells (Safai, et al., Lancet 1, 1438 (1984)) and inserted in frame into the pGEX vector. cDNA of PRL-1R86 was generated by recombinant DNA technique using PRL-1 cDNA as template following established procedures (Jiao, et al., Mol. Cell. Biol. 16, 6985 (1996)). […]
(§2) In vitro PTPase assays were used to determine the effects of compounds on recombinant PTPases, following established procedures using a synthetic phosphotyrosine peptide or DiFMUP as the substrate (Pathak et al., J. Imumol. 167, 3391 (2001)). […] PTPase activity of individual reactions was measured by adding 100 μL of malachite green solution (UBI) and then quantifying the amounts of free phosphate cleaved by the PTPase from the peptide substrate by spectrometry (OD660 nm). […] Relative PTPase activities were calculated based on the formula: (PTPase activity in the presence of an inhibitory compound/PTPase activity in the absence of the compound)×100%. […]

SHP-1 = target: T3, SHP-1 (Mus musculus, UniProt P29351); test: In vitro PTPase assay, GST/SHP-1 fusion protein; format: biochemical; conditions: 3-4 μg/ml or 10-100 μg/ml
T3 construct: made in house
T3 sequence (P29351 whole entry, the tested form may be a part): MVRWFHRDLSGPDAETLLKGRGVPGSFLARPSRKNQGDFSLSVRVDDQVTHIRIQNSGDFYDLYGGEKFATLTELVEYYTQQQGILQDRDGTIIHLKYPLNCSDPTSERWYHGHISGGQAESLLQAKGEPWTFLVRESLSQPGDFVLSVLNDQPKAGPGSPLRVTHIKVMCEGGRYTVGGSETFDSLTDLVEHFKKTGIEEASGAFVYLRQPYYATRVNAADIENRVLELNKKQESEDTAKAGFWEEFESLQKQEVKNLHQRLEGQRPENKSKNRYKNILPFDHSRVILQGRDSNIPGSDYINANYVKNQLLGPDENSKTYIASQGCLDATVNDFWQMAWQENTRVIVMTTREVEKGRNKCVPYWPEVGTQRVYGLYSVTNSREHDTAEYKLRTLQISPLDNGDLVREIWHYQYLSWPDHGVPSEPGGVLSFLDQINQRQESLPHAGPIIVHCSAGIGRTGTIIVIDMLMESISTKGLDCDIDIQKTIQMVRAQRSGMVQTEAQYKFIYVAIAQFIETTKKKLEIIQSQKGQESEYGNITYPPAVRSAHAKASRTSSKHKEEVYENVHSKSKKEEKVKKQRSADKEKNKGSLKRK
Protocol: In vitro PTPase activities were measured using the commercial protein tyrosine phosphatase assay kit (Upstate Biotechnology, Inc. (“UBI”)) following established procedure known to one of skill in the art. […] 100 μl of Malachite Green solution was added and incubated for 5 minutes, and the absorbance at 660 nm was measured after 5 minutes.
The beads were then either subjected to in vitro PTPase assays or washed 3 times in Tris buffer then subjected to in vitro PTPase assays.
Briefly, individual PTPases (0.1 μg/reaction) in 50 μL of PTPase buffer (50 mM Tris, pH 7.4) were incubated at 22° C. for 10 minutes or as indicated in the absence or presence of inhibitory compounds. […] […] […] Relative PTPase activities were calculated based on the formula: (PTPase activity in the presence of an inhibitory compound/PTPase activity in the absence of the compound)×100%. To assess the reversibility of PTPase inhibition, GST fusion proteins of the PTPases bound on glutathione beads (Pharmacia) were pre-incubated with cold Tris buffer (50 mM Tris, pH 7.0) or Tris buffer containing the inhibitor at 4° C. for 30 minutes. The beads were then washed three times in cold Tris buffer or not washed prior to subjecting to in vitro PTPase assays.

GSTm8 = test: In vitro PTPase assay, GSTm8; format: biochemical; conditions: 3-4 μg/ml or 10-100 μg/ml
PRL-2 = target: T4, PRL-2 (Homo sapiens, UniProt Q12974); test: In vitro PTPase assay, recombinant PRL-2; format: biochemical
T4 construct: cDNAs of human PRL-1, PRL-2 and PRL-3 coding region were derived by RT-PCR from H9 cells; made in house; host or cells: DH5a bacteria (E. coli)
T4 sequence (Q12974 whole entry): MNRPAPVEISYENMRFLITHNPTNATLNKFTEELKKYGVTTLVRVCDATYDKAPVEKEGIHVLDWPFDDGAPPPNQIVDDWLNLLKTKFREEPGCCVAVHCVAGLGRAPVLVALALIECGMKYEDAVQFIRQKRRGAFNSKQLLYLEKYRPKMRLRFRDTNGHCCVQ
Description: as §1, §2

MKP1 = target: T5, MKP1 (Homo sapiens, UniProt P28562); test: In vitro PTPase assay, GST/MKP1 fusion protein; format: biochemical
T5 construct: a pGEX construct containing the coding region of MKP1 cDNA derived by RT-PCR; made in house; host or cells: DH5a bacteria (E. coli)
T5 sequence (P28562 1-367): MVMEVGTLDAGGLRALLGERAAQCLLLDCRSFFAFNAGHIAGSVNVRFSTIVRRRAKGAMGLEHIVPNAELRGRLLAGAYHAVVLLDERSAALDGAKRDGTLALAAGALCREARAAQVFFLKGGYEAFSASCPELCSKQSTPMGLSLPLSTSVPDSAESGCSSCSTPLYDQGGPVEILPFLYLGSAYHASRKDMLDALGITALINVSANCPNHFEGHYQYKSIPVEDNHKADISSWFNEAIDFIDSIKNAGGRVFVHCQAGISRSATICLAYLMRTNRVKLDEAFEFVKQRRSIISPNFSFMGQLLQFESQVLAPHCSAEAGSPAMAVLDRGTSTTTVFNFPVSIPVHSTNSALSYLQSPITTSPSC

U937 cells = test: U937 cell differentiation (NBT reduction); format: cell-based, human; conditions: GM-CSF 25 ng/ml alone, day 6
Protocol: (§3) Differentiation of AML cell lines was assessed by their ability to produce superoxide as measured by reduction of NBT to formazan and by analysis of expression of CD11b surface marker by flow cytometry. For NBT reduction, each cell suspension was mixed with an equal volume of solution containing 1 mg/ml of NBT (Sigma) and 2.5 μg/ml of TPA for 30 minutes at 37° C. After incubation, cells containing the purple formazan deposits and cells devoid of NBT-reducing activity (white cells) in each sample were determined by counting 200 cells under microscope. Data is expressed as a percentage based on the following ratio: purple cells/purple+white cells. For analysis of cell surface antigens, cells were exposed to phycoerythrin (PE)-conjugated murine anti-human CD11b (DAKO Corp., Carpinteria, Calif.). Analysis of fluorescence was performed on a FACScan flow cytometer (Beckton Dickinson, Mountain View, Calif.).

NB4 cells = test: NB4 cell differentiation (NBT reduction, CD11b); format: cell-based, human
Protocol: as §3

HL-60 cells = test: HL-60 cell differentiation (NBT reduction); format: cell-based, human; conditions: GM-CSF 25 ng/ml alone, day 6
Protocol: as §3

T1 sequence (O75365 whole entry): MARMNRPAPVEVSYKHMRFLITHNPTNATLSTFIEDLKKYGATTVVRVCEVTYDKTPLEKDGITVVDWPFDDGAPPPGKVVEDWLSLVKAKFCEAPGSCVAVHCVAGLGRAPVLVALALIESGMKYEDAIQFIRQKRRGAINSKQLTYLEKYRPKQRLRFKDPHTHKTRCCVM

With `CC(=O)N1CCN(c2ccc(OCC3COC(Cn4ccnc4)(c4ccc(Cl)cc4Cl)O3)cc2)CC1` (centres unmarked) [ketoconazole] the “remaining PRL-3 PTPase activity” value (PRL-3) was 25-40%, the inhibition at 40 µg/mL (WM9 cells; Homo sapiens, WM9, 144 h, read-out: growth inhibition of WM9 cells, single agent) was 67% and the “effect on IFN-alpha activity in WM9” value (WM9 cells; ketoconazole 40 μg/ml) was “minor augmenting effect”. The “activity against WM9 cells, single agent or with IFN-alpha” value (WM9 cells; ketoconazole 0.625-20 μg/ml, 6 days) was “no apparent activity”, the “retained PRL-1 PTPase activity” value (PRL-1) was 60-70% and the “inhibitory activity against SHP-1” value (SHP-1) was “no obvious inhibitory activity”. For the same compound, the “inhibitory activity against GSTm8” value (GSTm8) was “no obvious inhibitory activity” and the “effectiveness against PRL-2” value (PRL-2) was “not effective”.

In the case of `N=C(N)c1ccc(OCCCCCOc2ccc(C(=N)N)cc2)cc1` [pentamidine], the “remaining PRL-3 PTPase activity” value (PRL-3) is reported as 20-30%, the “growth inhibition of WM9 cells, single agent” value (WM9 cells; pentamidine 2.5-5 μg/ml, 6 days) is reported as 86-97% and the “effect on IFN-alpha-induced growth inhibition of WM9” value (WM9 cells; pentamidine, most obviously at 0.625-1.25 μg/ml) is reported as “augmented IFN-alpha-induced growth inhibition”. For the same compound, the “retained PRL-1 PTPase activity” value (PRL-1) was 70-80%, the “inhibitory activity against SHP-1” value (SHP-1) was “no obvious inhibitory activity” and the “inhibition of MKP1” value (MKP1) was “substantial inhibition”. The “inhibitory activity against GSTm8” value (GSTm8) was “no obvious inhibitory activity” and the “effectiveness against PRL-2” value (PRL-2) was “not effective”.

For “GM-CSF: recombinant human granulocyte/macrophage colony stimulating factor”, the “maximal increase of NBT-positive U937 cells” value (U937 cells) was 8-10%, the “effect on NB4 cell differentiation” value (NB4 cells; GM-CSF alone) was “no detectable effect” and the “augmentation of sodium stibogluconate-induced NB4 differentiation” value (NB4 cells; GM-CSF with sodium stibogluconate) was “failed to augment”. For the same compound, the “maximal increase of NBT-positive HL-60 cells” value (HL-60 cells) was 8-10%.
